Reference: publication PMC7156724, “Potent BRD4 inhibitor suppresses cancer cell-macrophage interaction” (Nature Communications, 2020)
Several values for one entry are separate records, joined by “and”; a condition that tells them apart may be missing. Equal values may be shown once.

What was measured:
ES-2 cells = assay: Clonogenic (colony formation) assay, ES-2; format: cell-based, human; settings: ES-2, 250 nM, 5 days
Protocol: Fig. 2 NHWD-870 inhibited BRD4 phosphorylation and c-MYC expression, and suppressed cell growth. a Representative western blot analysis of p-BRD4 (s484/488), BRD4, c-MYC, and GAPDH after treatment of MDA-MB231, SUM159, A2780 ES-2, and H526 cells with JQ-1 or NHWD-870 at the indicated concentrations for 24 h. GAPDH served as the loading control. Selected from three independent experiments. b MTT assays of H526, A2780, ES-2, and MDA-MB231 cells treated with JQ-1 or NHWD-870 at the indicated concentrations for 5 days. Data are presented as mean ± SEM from three independent experiments. c, d Clonogenic assays of H526, A2780, ES-2 and MDA-MB231 cells treated with 250 nM JQ-1 or NHWD-870 for 5 days. Shown are representative images (c) and quantification of colonies (d). […] Shown are representative images (e) and quantification of relative colony sizes (f). Scale bar, 50 μm. Data are presented as mean ± SEM from five independent experiments. p values were calculated using two-tailed, unpaired t tests in this figure. **p < 0.01; ***p < 0.001. Source data are provided as a Source Data file. […]
5. Colony formation assay. Cells were seeded in 6-well plates at 3,000 cells/well […]
every week. […] Colony numbers were calculated with imageJ version

A2780 cells = assay: MTT cell growth assay, A2780; format: cell-based, human; settings: 5 days
Protocol: Fig. 2 NHWD-870 inhibited BRD4 phosphorylation and c-MYC expression, and suppressed cell growth. a Representative western blot analysis of p-BRD4 (s484/488), BRD4, c-MYC, and GAPDH after treatment of MDA-MB231, SUM159, A2780 ES-2, and H526 cells with JQ-1 or NHWD-870 at the indicated concentrations for 24 h. GAPDH served as the loading control. Selected from three independent experiments. b MTT assays of H526, A2780, ES-2, and MDA-MB231 cells treated with JQ-1 or NHWD-870 at the indicated concentrations for 5 days. Data are presented as mean ± SEM from three independent experiments. c, d Clonogenic assays of H526, A2780, ES-2 and MDA-MB231 cells treated with 250 nM JQ-1 or NHWD-870 for 5 days. Shown are representative images (c) and quantification of colonies (d). […] Shown are representative images (e) and quantification of relative colony sizes (f). Scale bar, 50 μm. Data are presented as mean ± SEM from five independent experiments. p values were calculated using two-tailed, unpaired t tests in this figure. **p < 0.01; ***p < 0.001. Source data are provided as a Source Data file.
37℃, 5% CO2. […]

A2780 tumors = assay: Orthotopic OC model with CSF1 overexpressing A2780 cells, NHWD-870 treatment; format: in vivo, mouse; set-up: Tumor weight (Fig.6k) / Ascitic fluid (Fig.6l): unit not given here
Protocol: Fig. 6 CSF1/CSF1R signaling is critical for the tumor inhibitory effects of NHWD-870 and CSF1 induced ovarian cancer growth depends on macrophages. a Number of TAMs after treatment with the indicated concentration of CSF1 for 48 h. Data are presented as mean ± SEM from three independent experiments. b–d Schematics of the experiments (b). A2780 cells (pre-treated with DMSO or 100 nM NHWD-870 for 48 h) were seeded into the top chamber (transwell size: 0.4 μm), and TAMs (Mac, 40,000 cells per 24-well) in medium with PBS or 10 ng/ml CSF1 (c), or 50 ng/ml IgG or anti-CSF1R antibodies (d), were seeded into the bottom chamber. Shown are quantification of TAMs (c, d). Data are presented as mean ± SEM from three independent experiments. e Representative western blot analysis of A2780 cells stably transfected with CSF1 or empty vector (EV). Selected from three independent experiments. f Schematics of the animal experiments using an orthotopic mouse OC model, established by intraperitoneally injecting 1 × 10^6 (g–j) or 2 × 10^6 (k–m) human A2780 cells overexpressing CSF1 or control into female recipient nude mice. Mice were then treated with/without liposomal clodronate (LC) for 45 days (g–j) or treated with/without NHWD-870 (PO, QD, 3 mg/kg) for 37 days (k–m). g Increased mouse body weight was measured at the indicated time points (day 0-45 after LC treatment). h–j Net tumor weight (h), ascitic fluid volumes (i) tumor implantations in peritoneum, omentum and pevic cavity (j) were measured at day 45 from LC treatment. k–m Net tumor weight (k), ascitic fluid volumes (l) tumor implantations in peritoneum, omentum and pevic cavity (m) were measured at day 37 after NHWD-870 treatment. For g–m, data are presented as mean ± SEM from five different mice. p values were calculated using two-tailed, unpaired t tests in this figure. n.s, not significant; *p < 0.05; **p < 0.01; and ***p < 0.001. Source data are provided as a Source Data file.
4–6 weeks old female BALB/c nude mice were used for most experiments, with the exception of 6–8 weeks old female C57BL/6 mice were used for B16F10 experiments, and 6–8 weeks old male BALB/c nude mice and SD rats were used for pharmacokinetic experiments. All animals were purchased from Shanghai SIPPR-Bk Lab Animal Co., Ltd. All animals were housed under a regimen of 12 h light/12 h dark cycles and specific pathogen-free conditions. 5×10^6 NCI-H526, ES-2, MDA-MB231, A2780, A375, B16F10, and TMD-8 cells (0.1 ml) were injected subcutaneously into female nude mice. The melanoma patient-derived xenograft model was derived from a human melanoma sample (BRAF, NARS and NF1 wild type, and p53 mutant) removed from a patient in Xiangya Hospital. Surgically removed tumor fragments were implanted subcutaneously into female NSG mice. When the tumors grew to ~1000 mm^3, they were harvested and cryopreserved or immediately re-implanted for expansion or experiments. Mouse body weight and tumor sizes were measured every 3 days. Once the tumors grew to 150–200 mm^3, mice were treated with the compounds as described in the Figures. 1 × 10^6 A2780 cells (1 ml) were injected into the abdominal cavity of nude mice. Ascitic volume and tumor weight were measured by an electronic balance. All the procedures were evaluated and approved by the Institutional Animal Care and Use Committee of Central South University and Yale University.

[1] = CSF-1 overexpressing A2780 cells

Cc1nnn(C)c1-c1cnc2c3c4cnn(C)c4ccc3n([C@H](c3ccccc3)C3CCOCC3)c2c1 [NHWD-870]
Clone Number (clonogenic assay) (ES-2 cells): 146 and 155 and 103 and 98 and 133 | MTT assay, relative cell number (A2780 cells; A2780, 0.1 nM): 0.974 and 0.959 and 0.985 | MTT assay, relative cell number (A2780 cells; A2780, 1 nM): 0.705 and 0.725 and 0.731 | MTT assay, relative cell number (A2780 cells; A2780, 10 nM): 0.252 and 0.282 and 0.215 | MTT assay, relative cell number (A2780 cells; A2780, 100 nM): 0.025 and 0.047 and 0.033 | MTT assay, relative cell number (A2780 cells; A2780, 500 nM): 0 | MTT assay, relative cell number (A2780 cells; A2780, 1000 nM): 0 | MTT assay, relative cell number (A2780 cells; A2780, 5000 nM): 0 | MTT assay, relative cell number (A2780 cells; A2780, 10000 nM): 0 | Ascitic fluid (Fig.6l) (A2780 tumors; [1]): 2.5 and 3.8 and 4.1 and 3.5 and 2.1 | Tumor nodules, Omentum (Fig.6m) (A2780 tumors; [1]): 8 and 13 and 10 and 16 and 12 | Tumor nodules, Pelvic (Fig.6m) (A2780 tumors; [1]): 45 and 54 and 36 and 64 and 51 | Tumor weight (Fig.6k) (A2780 tumors; [1]): 375 and 345 and 367 and 276 and 305 | tumor inhibitory effects on CSF1 overexpressing A2780 tumors (A2780 tumors; PO, QD, 3 mg/kg, 37 days): strongly mitigated the tumor inhibitory effects
